In general, IC50 refers to the concentration at which inhibition is half-maximal.

The record followed here is PubChem BioAssay AID1159564 (GlaxoSmithKline (GSK), 2015).

Activity calls are given as the source filed them. No rule for the calls is given here.

For this assay, the system named is L. donovani-infected THP-1 macrophages, intracellular amastigote imaging. The assay is described as follows: antileishmanial activity in infected THP-1 macrophages – imaging, THP-1 host macrophages, host toxicity (AID 1159564).
The mark [1] stands for this setting: measured here: THP-1 host cell toxicity.
The mark [2] stands for this setting: measured here: amastigotes per macrophage.

For `O=C(Nc1ccccc1)Nc1nc(-c2ccccn2)cs1`, the IC50 is 0.4 µM. Besides, under setting [1], the IC50 worked out at 6.3 µM. This molecule registered an IC50 under setting [2] of 0.25 µM.
On the same counts, the results for `CCc1ccccc1[C@@H](C)NC(=O)c1cnc2c(cnn2CC)c1NC1CCN(C(N)=O)CC1` are > 50 µM (inactive), above 50 µM and above 50 µM.
On the same counts, the results for `O=C(Nc1nc2cc(Cl)ccc2o1)c1cccc(Cl)c1` are > 50 µM (inactive), 6.3 µM and above 50 µM.
For `COc1ccc(NS(=O)(=O)c2cc(NC(=O)Cc3ccc(C)cc3)ccc2N2CCOCC2)cc1`, the IC50 is > 50 µM (inactive). Under setting [1], this molecule came in with an IC50 above 50 µM. The molecule also yielded a half-maximal inhibitory concentration (IC50) under setting [2] above 50 µM.
For the molecule `O=C(NCc1ccc(Cl)cc1)C1CN(C(=O)c2ccc(F)cc2)CCS1` (configuration not stated), the IC50 is > 50 µM (inactive). Under setting [1], this molecule displayed an IC50 above 50 µM. Besides, under setting [2], the IC50 was above 50 µM.
Turning to `Cc1cc(C)nc(N2CCC(N(Cc3cccnc3)C(=O)c3cccc(C#N)c3)CC2)n1`, the IC50 is > 50 µM (inactive). The molecule further yielded an IC50 under setting [1] above 50 µM. The same molecule had a half-maximal inhibitory concentration (IC50) under setting [2] above 50 µM.
As to `O=C1c2cnc(N3CCCC3)nc2CN1c1ccc2c(c1)OCO2`, the IC50 was 10 µM. Under setting [1], this molecule yielded a concentration for half-maximal inhibition (IC50) above 50 µM. In addition, the 50% inhibitory concentration (IC50) under setting [2] amounted to 6.3 µM.
On the same counts, the results for `O=C(NCc1nnc2n1CCCCC2)c1csc(-c2ccccc2)n1` are > 50 µM (inactive), above 50 µM and above 50 µM.
On the same counts, the results for `Cc1cc2ncn(-c3ccc([N+](=O)[O-])cc3C#N)c2cc1C` are > 50 µM (inactive), above 50 µM and above 50 µM.
On the same counts, the results for `NC(=O)c1ccc(-c2cccc(OCCN3CCN(C4CCCCC4)CC3)c2)cc1` are 50 µM, 32 µM and 10 µM.
Consider `CC(C)(C)CC(=O)NCCc1csc(-c2ccc(F)cc2)n1`, for which the IC50 was 32 µM. The molecule further yielded an IC50 under setting [1] of 16 µM. The molecule further returned a 50% inhibitory concentration (IC50) under setting [2] of 16 µM.
Take `O=C(Nc1nc2ccccc2[nH]1)c1ccc2nc[nH]c2c1`: the concentration for half-maximal inhibition (IC50) is 5 µM. Moreover, the half-inhibitory concentration (IC50) under setting [1] is above 50 µM. This molecule showed a 50% inhibitory concentration (IC50) under setting [2] of 3.2 µM.
For `Cn1nccc1NC(=O)Cn1ccc(-c2ccncc2)n1` the same measures were > 50 µM (inactive), above 50 µM and above 50 µM.
On the same counts, the results for `Cc1cc(NC(=O)C2CC2)ccc1OC1CCN(Cc2ccco2)CC1` are 20 µM, 13 µM and 13 µM.
For `CCCNC(=O)Nc1cccc(-c2nc3ncccc3o2)c1` the same measures were 13 µM, 20 µM and 16 µM.
As to `O=C(Nc1cccc(S(=O)(=O)Nc2ccc(Br)cc2)c1)c1ccc([N+](=O)[O-])s1`, the IC50 was 1 µM. The molecule further displayed an IC50 under setting [1] of 10 µM. The half-maximal inhibitory concentration (IC50) under setting [2] was 0.79 µM.
On to `CC(C)(C)Nc1nc(Nc2ccc3c(c2)CS(=O)(=O)C3)nc2[nH]ccc12`, for which the IC50 is 6.3 µM. For the same molecule, under setting [1], the IC50 was 20 µM. The concentration for half-maximal inhibition (IC50) under setting [2] came out at 5 µM.
For `CC(C)N(C(=O)CN1C(=O)C(N)C(=O)N(c2ccccc2)c2ccccc21)c1ccccc1` (configuration not stated) the same measures were > 50 µM (inactive), above 50 µM and above 50 µM.
On the same counts, the results for `O=c1cc(CSc2ccc(Cl)cc2)nc(-c2ccccn2)[nH]1` are 5 µM, 4 µM and 2 µM.
For `O=C(NCc1nnc2n1CCCCC2)c1ccc(-c2ccc(F)cc2)o1` the same measures were > 50 µM (inactive), above 50 µM and above 50 µM.
For the molecule `COc1cccc(CN(C)Cc2nc(N)c3c(C)c(C)sc3n2)c1`, the IC50 was 5 µM. Moreover, the IC50 under setting [1] came out at 32 µM. The IC50 under setting [2] amounted to 3.2 µM.
For `CC(C)c1cc(C(=O)N2CCCC(c3cc4ncccc4[nH]3)C2)on1` (configuration not stated) the same measures were > 50 µM (inactive), above 50 µM and above 50 µM.
For `COc1cc(OC)cc(C(=O)N[C@@H](CC(C)C)C(=O)NC2(C#N)CC2)c1` the same measures were > 50 µM (inactive), above 50 µM and above 50 µM.
On the same counts, the results for `CCCc1cc(C(=O)Nc2ncc(-c3cccc(Br)c3)n2C)n[nH]1` are 5 µM, 32 µM and 4 µM.
With `Cc1cc(N2CCc3ccccc3C2)nc(Nc2ccc(S(=O)(=O)N3CCOCC3)cc2)n1`, the IC50 is 5 µM. Under setting [1], this molecule yielded an IC50 of 25 µM. Besides, the 50% inhibitory concentration (IC50) under setting [2] was determined as 1.6 µM.
For `CCc1ccc2nc(NC(=O)c3cc(N4CCOCC4)ccn3)sc2c1` the same measures were 1.3 µM, 10 µM and 0.79 µM.
As for `Cc1ccc(NC(=O)c2ccc([N+](=O)[O-])s2)cc1S(=O)(=O)N1CCOCC1`, the IC50 is 3.2 µM. This molecule gave an IC50 under setting [1] of 40 µM. This molecule also yielded a 50% inhibitory concentration (IC50) under setting [2] of 2 µM.
For `COc1cc(NC(=O)Nc2cccc(CNC(=O)OC3CCCCC3)c2)ccc1-c1cnco1` the same measures were > 50 µM (inactive), 10 µM and 20 µM.
For `CN(Cc1cccnc1)Cc1ccc(N2CCN(C(=O)C3(c4ccc(Cl)cc4)CC3)CC2)nc1` the same measures were > 50 µM (inactive), 10 µM and above 50 µM.
For the molecule `O=C(N[C@H](CO)c1ccccc1)c1ccc(-c2c[nH]c3nccc(C(F)(F)F)c23)s1`, the IC50 was 25 µM. This molecule also showed an IC50 under setting [1] of 13 µM. Under setting [2], this molecule yielded a half-maximal inhibitory concentration (IC50) of 16 µM.
For `Cc1cc(NC(=O)CC2CCCCC2)n(-c2nc3c(c(=O)[nH]2)CCC3)n1` the same measures were 3.2 µM, 4 µM and 1.6 µM.
For `Clc1cc(Br)ccc1OCCCCn1ccnc1` the same measures were 25 µM, 32 µM and 6.3 µM.
On the same counts, the results for `O=C(Nc1nc(-c2ccccn2)cs1)C1CCc2ccccc2C1` (configuration not stated) are 0.63 µM, 7.9 µM and 0.4 µM.
On to `CCOc1ccc(OCC(=O)N2c3ccccc3CC2C(=O)NC)cc1` (configuration not stated), for which the IC50 is > 50 µM (inactive). The IC50 under setting [1] was above 50 µM. Further, the IC50 under setting [2] was above 50 µM.
`N#Cc1cccc(CN2CCC(c3nc(-c4ccc(C(F)(F)F)nc4)no3)CC2)c1`: the IC50 is > 50 µM (inactive). The molecule further yielded a concentration for half-maximal inhibition (IC50) under setting [1] above 50 µM. Also, under setting [2], the IC50 was above 50 µM.
On to `Cc1ccc(NC(=O)c2ccnc(N3CCCC3)c2)cc1-c1ccsc1C(N)=O`, for which the IC50 is > 50 µM (inactive). Further, under setting [1], the concentration for half-maximal inhibition (IC50) was above 50 µM. The molecule further returned an IC50 under setting [2] above 50 µM.
With `COc1ccc(S(=O)(=O)Nc2ccccc2OC)cc1NC(=O)CCCc1c[nH]c2ccccc12`, the IC50 is > 50 µM (inactive). The IC50 under setting [1] was above 50 µM. Besides, under setting [2], the IC50 is above 50 µM.
In the case of `O=C(NCC1CCCCC1)c1cnns1`, the IC50 is > 50 µM (inactive). This molecule also registered an IC50 under setting [1] above 50 µM. For the same molecule, the IC50 under setting [2] amounted to 10 µM.
For `O=C(Nc1nc(-c2ccccn2)cs1)c1ccccc1-n1cnnn1` the same measures were 6.3 µM, 5 µM and 4 µM.
For `Cc1c([N+](=O)[O-])c(C(=O)Nc2sc3c(c2C#N)CCC(C)C3)nn1C` (configuration not stated) the same measures were 32 µM, above 50 µM and 16 µM.
Turning to `Cc1occc1C(=O)Nc1ccccc1C(=O)Nc1nccs1`, the IC50 was > 50 µM (inactive). Under setting [1], this molecule yielded a concentration for half-maximal inhibition (IC50) above 50 µM. The half-maximal inhibitory concentration (IC50) under setting [2] was above 50 µM.
On to `CN(C)CCN(C)Cc1ccc(F)cc1NS(=O)(=O)c1ccc(Cl)c(Cl)c1`, for which the IC50 was 7.9 µM. The molecule also came in with an IC50 under setting [1] of 32 µM. This molecule yielded a half-inhibitory concentration (IC50) under setting [2] of 2.5 µM.
For `CC(C)Nc1nc(Cl)nc2ccccc12` the same measures were 2.5 µM, 20 µM and 1.3 µM.
On the same counts, the results for `COc1ccc(S(=O)(=O)NC(C)C)cc1Nc1ncc(-c2cccc(F)c2)cn1` are > 50 µM (inactive), above 50 µM and above 50 µM.
As to `Cc1[nH]n2c(=O)c3c(nc2c1-c1ccc(F)cc1)CCCC3`, the IC50 was > 50 µM (inactive). The same molecule yielded an IC50 under setting [1] above 50 µM. This molecule returned an IC50 under setting [2] above 50 µM.
For `CC(c1ccc2c(c1)CCCC2)N(C)c1ncc2c(N)nc(N)nc2n1` (configuration not stated), the half-inhibitory concentration (IC50) is 2 µM. In addition, the half-maximal inhibitory concentration (IC50) under setting [1] came to 25 µM. The same molecule displayed an IC50 under setting [2] of 0.79 µM.
For `OCC1CCCCN1c1cc(-c2ccccn2)nc(Nc2ccccc2)n1` (configuration not stated) the same measures were 1.3 µM, 20 µM and 1 µM.
For `CC(C(=O)Nc1ccccc1F)N(C)CC(=O)Nc1cccc2ccccc12` (configuration not stated) the same measures were > 50 µM (inactive), above 50 µM and above 50 µM.
On the same counts, the results for `O=C(COc1ccccc1)Nc1ccccc1C(=O)Nc1nccs1` are > 50 µM (inactive), 7.9 µM and above 50 µM.
Regarding `CS(=O)(=O)c1ccc(CC(=O)Nc2nc(-c3ccc(Cl)s3)cs2)cc1`, the IC50 was > 50 µM (inactive). The molecule also returned an IC50 under setting [1] of 16 µM. For the same molecule, the 50% inhibitory concentration (IC50) under setting [2] is above 50 µM.
For `Cc1ccc(NC(=O)c2ccc(Cl)c(NC(=O)c3ccc([N+](=O)[O-])cc3)c2)cc1` the same measures were > 50 µM (inactive), above 50 µM and above 50 µM.
On the same counts, the results for `CC(C)Nc1nccc(-c2c(-c3ccc(F)cc3)ncn2C2CCOCC2)n1` are 25 µM, above 50 µM and 16 µM.
On the same counts, the results for `Cc1nc2c(-c3nc(-c4ccc(N)cc4)n[nH]3)cccn2c1C` are 2 µM, 13 µM and 1.6 µM.
As for `CC(C)(C)c1cc(NC2CC2)nc(-c2ccccn2)n1`, the IC50 is 2.5 µM. Also, the IC50 under setting [1] stood at 25 µM. The 50% inhibitory concentration (IC50) under setting [2] turned out to be 1.6 µM.
